In test [1] the test system is MCF7. Put plainly: cells. The conditions noted are these: Homo sapiens, MCF7, 48 h.
Description: Cytotoxicity against human MCF7 cells assessed as reduction in cell viability after 48 hrs by MTT assay
Test [2] relates to MCF7. Put plainly: Cytotoxicity against drug-resistant […]-induced human MCF7 cells overexpressing CYP1B1 assessed as reduction in cell viability after 48 hrs by MTT assay. The test is classed as functional, cell-based. The conditions noted are these: MCF7, 48 h. A general note: Formazan colour is commonly taken as a measure of viable cells.
Test [3] can be described thus: Cytotoxicity against drug-resistant human MDA-MB-435/LCC6MDR1 cells assessed as reduction in cell viability after 48 hrs by MTT assay. It is filed as functional, cell-based. The conditions noted are these: MDA-MB-435/LCC6 MDR1, 48 h.
For another test, the system named is MDA-MB-231. Kind of test: cells. As to conditions: Homo sapiens, MDA-MB-231, 48 h.
The target of the next test is T1, Cytochrome P450 1A2 (Homo sapiens, UniProt P05177).
T1 sequence (P05177 whole entry): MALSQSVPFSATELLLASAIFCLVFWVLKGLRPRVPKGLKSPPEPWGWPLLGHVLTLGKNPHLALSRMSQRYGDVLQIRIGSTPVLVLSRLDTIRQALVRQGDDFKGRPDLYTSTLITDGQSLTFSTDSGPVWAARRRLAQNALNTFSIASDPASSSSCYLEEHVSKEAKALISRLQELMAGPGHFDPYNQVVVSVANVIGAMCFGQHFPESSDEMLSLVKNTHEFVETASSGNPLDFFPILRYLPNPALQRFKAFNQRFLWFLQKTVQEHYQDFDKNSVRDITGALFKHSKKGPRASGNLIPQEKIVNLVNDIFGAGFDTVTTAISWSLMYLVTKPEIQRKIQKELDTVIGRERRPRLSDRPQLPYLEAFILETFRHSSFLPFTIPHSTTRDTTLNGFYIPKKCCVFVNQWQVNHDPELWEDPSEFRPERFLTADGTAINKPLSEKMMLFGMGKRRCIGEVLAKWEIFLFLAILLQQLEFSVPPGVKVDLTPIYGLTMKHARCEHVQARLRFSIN
Put plainly: Inhibition of recombinant human CYP1A2 expressed in supersomes using 7-ethoxyresorufin as substrate after 50 mins in presence of NADP+ by EROD assay. It is filed as ADME.

The target in the next test is T2, Cytochrome P450 1A1 (Homo sapiens, UniProt P04798).
T2 sequence (P04798 whole entry): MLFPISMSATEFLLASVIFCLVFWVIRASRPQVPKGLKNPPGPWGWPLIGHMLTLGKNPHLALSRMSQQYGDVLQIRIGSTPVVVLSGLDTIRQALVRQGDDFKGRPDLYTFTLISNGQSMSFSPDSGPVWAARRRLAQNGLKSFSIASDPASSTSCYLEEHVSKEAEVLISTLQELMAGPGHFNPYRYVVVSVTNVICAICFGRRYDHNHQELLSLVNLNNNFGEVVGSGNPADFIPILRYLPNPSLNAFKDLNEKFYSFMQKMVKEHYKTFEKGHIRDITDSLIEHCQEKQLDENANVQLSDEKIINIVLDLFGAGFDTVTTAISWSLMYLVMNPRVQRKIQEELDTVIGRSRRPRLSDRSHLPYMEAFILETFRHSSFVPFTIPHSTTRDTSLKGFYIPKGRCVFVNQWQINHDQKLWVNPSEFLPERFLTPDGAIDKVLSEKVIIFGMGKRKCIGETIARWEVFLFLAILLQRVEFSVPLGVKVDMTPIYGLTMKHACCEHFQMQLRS
Put plainly: Inhibition of recombinant human CYP1A1 expressed in supersomes using 7-ethoxyresorufin as substrate after 15 mins in presence of NADP+ by EROD assay. It is filed as ADME.

This note sets out measurements from ChEMBL document CHEMBL4334432, “Development of benzochalcone derivatives as selective CYP1B1 inhibitors and anticancer agents” (Medchemcomm, 2019).

Description for MDA-MB-231: Cytotoxicity against human MDA-MB-231 cells assessed as reduction in cell viability after 48 hrs by MTT assay

A word on the IC50: it is the point on the concentration scale where inhibition reaches its midpoint. For the molecule `O=C(/C=C/c1ccccc1)c1ccc2ccccc2c1`, the IC50 in the test on MCF7 [1] is 24700 nM; in the test on MCF7 [2], 18200 nM; in test [3] it was 19400 nM; in the test with MDA-MB-231, 34100 nM; at Cytochrome P450 1A2 it was greater than 1000 nM.
Turning to `O=C(/C=C/c1ccccc1)c1ccc2ccccc2c1O`, the IC50 on Cytochrome P450 1A2 is greater than 1000 nM.
The same measure, in the same setting: as for `O=C(/C=C/c1ccccc1Cl)c1ccc2ccccc2c1O`, the figure is greater than 1000 nM; as for `O=C(/C=C/c1ccc(Cl)cc1)c1ccc2ccccc2c1O`, greater than 1000 nM.
For `COc1ccc(OC)c2c(OC)c(/C=C/C(=O)c3ccc4ccccc4c3O)cc(OC)c12`, the concentration for half-maximal inhibition (IC50) at Cytochrome P450 1A2 is greater than 1000 nM.
As for `O=C(CCc1ccccc1)c1ccc2ccccc2c1O`, at Cytochrome P450 1A2, the IC50 was greater than 1000 nM.
As for `COc1ccc(OC)c2c(O)c(C(=O)/C=C/c3ccccc3)cc(OC)c12`, the IC50 at Cytochrome P450 1A2 was 735 nM.
Same read-out and setting: as for `COc1c(C(=O)/C=C/c2ccccc2)ccc2ccccc12`, the figure is greater than 1000 nM; as for `O=C(/C=C/c1ccncc1)c1ccc2ccccc2c1O`, greater than 1000 nM; as for `Nc1c(C(=O)/C=C/c2ccccc2)ccc2ccccc12`, greater than 1000 nM.
Regarding `O=C(/C=C/c1ccccc1O)c1ccc2ccccc2c1O`, the IC50 on Cytochrome P450 1A2 was greater than 1000 nM.
Still for that read-out and setting: as for `COc1ccccc1/C=C/C(=O)c1ccc2ccccc2c1O`, the figure is greater than 1000 nM; as for `O=C(/C=C/c1cccc(F)c1)c1ccc2ccccc2c1O`, greater than 1000 nM; as for `O=C(/C=C/c1ccc(F)cc1)c1ccc2ccccc2c1O`, greater than 1000 nM.
Regarding `O=C(/C=C/c1ccccn1)c1ccc2ccccc2c1O`, the IC50 on Cytochrome P450 1A2 was greater than 1000 nM.
The same measure, in the same setting: as for `O=C(/C=C/c1cccnc1)c1ccc2ccccc2c1O`, the figure is 227 nM; as for `Nc1nc(-c2ccccc2)cc(-c2ccc3ccccc3c2)n1`, greater than 1000 nM; as for `O=C(/C=C/c1cccc(Cl)c1)c1ccc2ccccc2c1O`, greater than 1000 nM.
On the same count and under the same terms, as for `O=C(/C=C/c1ccc[nH]1)c1ccc2ccccc2c1O`, the figure is greater than 1000 nM; as for `O=C(/C=C/c1ccccc1F)c1ccc2ccccc2c1O`, greater than 1000 nM.
As to `O=c1cc(-c2ccccc2)oc2c1ccc1ccccc12` [ALPHA-NAPHTHOFLAVONE], the IC50 in the test with MCF7 [1] is 80700 nM; in the test on MCF7 [2] it was greater than 100000 nM; in test [3] it was 82300 nM; at Cytochrome P450 1A1 it was 80.3 nM; in the test on MDA-MB-231, greater than 100000 nM.
Take `O=c1[nH]cc(F)c(=O)[nH]1` [FLUOROURACIL]: the IC50 in the test with MCF7 [1] was greater than 100000 nM; in the test with MCF7 [2], greater than 100000 nM; in test [3], greater than 100000 nM; in the test with MDA-MB-231, 93800 nM.
